Results: patent US9901592B2 (priority 2008, dated 2018)
Values after ≈ are worked out from the molar mass of the structure shown. Read-outs that look alike come from different tables or passages of the source.

How the values were obtained:
S. pyogenes [1] = format: cell-based
S. aureus = assay: mouse systemic infection model (PD50); format: in vivo
S. pneumoniae [2] = assay: neutropenic mouse thigh infection; format: in vivo; conditions: PO
M. fermentans = format: cell-based; conditions: M. fermentans (15 isolates)
S. pneumoniae [3] = assay: neutropenic mouse thigh infection; format: in vivo; conditions: PO; remark: listed apart in the source
Method: Example. Neutropenic Mouse Thigh Infection. Mice were rendered neutropenic with IP injections of cyclophosamide at day −4 and day −1 of 150 mg/Kg and 100 mg/Kg, respectively. On day 0 mice were infected with approximately 5×10^5 CFU/ml of bacteria in a 0.1 ml volume into the right thigh. At 1.5 hours post infection mice received treatment via oral gavage. One group of infected mice were euthanized and thigh processed for bacterial titers to serve as T=0 controls. Twenty-four hours post treatment, the remaining mice were euthanized, thighs aseptically removed, weighed, homogenized, serially diluted and plated on bacterial growth media. CFUs per gram of thigh were calculated after overnight incubation of bacterial plates. The amount of test article required to achieve 1, 2, and 3 loge reductions from 24 hour control thighs were calculated. Additional studies were performed that fractionated the single treatment dose (Q24) into two (Q12), three (Q8) and four (Q6) equivalent doses to determine the pharmacodynamic nature of this compound. Further analysis includes static dose, EC50, 1 log kill and maximal effect (Emax).

M. genitalium = format: cell-based; conditions: M. genitalium (5 isolates)
S. pneumoniae [4] = assay: MIC of the strains of the mouse systemic infection model; format: cell-based; conditions: Streptococcus pneumoniae
M. hominis = format: cell-based; conditions: M. hominis (13 isolates)
M. catarrhalis = assay: microbe, parasite or virus in culture; format: cell-based
U. urealyticum = assay: MIC testing in 10B broth (colour change); format: cell-based; conditions: U. urealyticum (10 isolates)
S. pyogenes [5] = assay: MIC of the strains of the mouse systemic infection model; format: cell-based; conditions: Streptococcus pyogenes
S. pneumoniae [6] = format: cell-based
N. meningitidis = assay: MIC, CLSI broth microdilution, invasive isolates; format: cell-based; conditions: Neisseria meningitidis; 62 N. meningitidis isolates
Method: Example. […] Colonization of the nasopharynx (NP) by NM can lead to invasive meningococcal disease. Chemoprophylaxis is used to eradicate NP colonization and prevent transmission to nonimmune contacts. […] 62 isolates (91.9% blood culture) of NM were collected from 29 medical centers in North and South America and Europe (1997-2008). […] Serological identification was performed for serogroups (SGs) B, C, Y and W135.

[7] = tested on: intraphagocytic L. pneumophila ATCC 33153 (THP-1); format: cell-based; conditions: L. pneumophila ATCC 33153, 48 h

With `CC[C@H]1OC(=O)[C@@](C)(F)C(=O)[C@H](C)[C@@H](OC2OC(C)CC(N(C)C)C2O)[C@@](C)(OC)C[C@@H](C)C(=O)[C@H](C)[C@H]2N(CCCCn3cc(-c4cccc(N)c4)nn3)C(=O)O[C@]12C` (some centres unmarked) [CEM-101, 11-N-4-(3-aminophenyl)-[1,2,3]triazol-1-yl]-butyl}-5-desosaminyl-3-oxo-2-fluoro-erythronolide A,-11,12-cyclic carbamate] the “single step mutation frequency” value (S. pyogenes [1]; strain 237 Macrolide-R [L4 mutation], 2 × MIC) was <1.3 × 10^−10, the “single step mutation frequency” value (S. pyogenes [1]; strain 237 Macrolide-R [L4 mutation], 4 × MIC) was <1.3 × 10^−10 and the “single step mutation frequency” value (S. pyogenes [1]; strain 237 Macrolide-R [L4 mutation], 8 × MIC) was <1.3 × 10^−10. For the same molecule, the “single step mutation frequency” value (S. pyogenes [1]; strain 2011 Macrolide-R [mef(A)], 2 × MIC) was 3.9 × 10^−8, the “single step mutation frequency” value (S. pyogenes [1]; strain 2011 Macrolide-R [mef(A)], 4 × MIC) was <1.1 × 10^−10 and the “single step mutation frequency” value (S. pyogenes [1]; strain 2011 Macrolide-R [mef(A)], 8 × MIC) was <1.1 × 10^−10. The “single step mutation frequency” value (S. pyogenes [1]; strain 2094 Macrolide-R [erm(A)], 2 × MIC) was 5.3 × 10^−8, the “single step mutation frequency” value (S. pyogenes [1]; strain 2094 Macrolide-R [erm(A)], 4 × MIC) was 2.1 × 10^−9 and the “single step mutation frequency” value (S. pyogenes [1]; strain 2094 Macrolide-R [erm(A)], 8 × MIC) was <5.3 × 10^−10. The “single step mutation frequency” value (S. pyogenes [1]; strain 2132 Macrolide-S, 2 × MIC) was <1.0 × 10^−10, the “single step mutation frequency” value (S. pyogenes [1]; strain 2132 Macrolide-S, 4 × MIC) was <1.0 × 10^−10 and the “single step mutation frequency” value (S. pyogenes [1]; strain 2132 Macrolide-S, 8 × MIC) was <1.0 × 10^−10. The “single step mutation frequency” value (S. pyogenes [1]; strain 2368 Macrolide-R [erm(B)], 2 × MIC) was <5.9 × 10^−11, the “single step mutation frequency” value (S. pyogenes [1]; strain 2368 Macrolide-R [erm(B)], 4 × MIC) was <5.9 × 10^−11 and the “single step mutation frequency” value (S. pyogenes [1]; strain 2368 Macrolide-R [erm(B)], 8 × MIC) was <5.9 × 10^−11. The PD50 (S. aureus; MRSA) was 7.5 mg/kg, the PD50 (S. aureus; MRSA 300 (CA)) was 9.5 mg/kg and the PD50 (S. aureus; S. aureus, single oral dose 1 hr post infection) was 16.3 mg/kg. For the same molecule, the “Dose for 1 log10 Reduction from 24 hour controls” value (S. pneumoniae [2]; S. pneumoniae 1629, QD) was 6.0 mg/Kg, the “Dose for 3 log10 Reduction from 24 hour controls” value (S. pneumoniae [2]; S. pneumoniae 1629, QD) was 8.0 mg/Kg and the 1 log kill (S. pneumoniae [2]; S. pneumoniae 6303, Q6) was 23.0 mg/Kg. The EC50 (S. pneumoniae [2]; S. pneumoniae 6303, Q6) was 16.7 mg/kg, the Static dose (S. pneumoniae [2]; S. pneumoniae 6303, Q6) was 20.5 mg/kg and the 1 log kill (S. pneumoniae [2]; S. pneumoniae 6303, Q8) was 23.0 mg/Kg. The Emax (S. pneumoniae [2]; S. pneumoniae 6303, Q8) was 5.01 log10CFU/thigh, the Static dose (S. pneumoniae [2]; S. pneumoniae 6303, Q8) was 12.1 mg/kg and the 1 log kill (S. pneumoniae [2]; S. pneumoniae 6303, Q12) was 24.0 mg/Kg. The Static dose (S. pneumoniae [2]; S. pneumoniae 6303, Q12) was 19.2 mg/kg, the Emax (S. pneumoniae [2]; S. pneumoniae 6303, Q24) was 6.38 log10CFU/thigh and the Static dose (S. pneumoniae [2]; S. pneumoniae 6303, Q24) was 8.2 mg/kg. The “Dose for 1 log10 Reduction from 24 hour controls” value (S. pneumoniae [2]; S. pneumoniae 6303, QD) was 1.2 mg/Kg, the “Dose for 2 log10 Reduction from 24 hour controls” value (S. pneumoniae [2]; S. pneumoniae 6303, QD) was 3.0 mg/Kg and the “Dose for 3 log10 Reduction from 24 hour controls” value (S. pneumoniae [2]; S. pneumoniae 6303, QD) was 5.0 mg/Kg. The “MIC Range” value (M. fermentans) was “≦0.008 μg/mL”, the MIC50 (M. fermentans; Mycoplasmopsis fermentans) was ≤ 0.008 µg/mL and the MIC90 (M. fermentans; Mycoplasmopsis fermentans) was ≤ 0.008 µg/mL. For the same molecule, the “Max. change in log10CFUs from 24 hr. controls” value (S. pneumoniae [3]; S. pneumoniae 1629) was −5.81 log10CFUs, the “Dose for 2 log10 Reduction from 24 hour controls” value (S. pneumoniae [3]; S. pneumoniae 1629, QD) was 7.0 mg/Kg and the “Max. change in log10CFUs from 24 hr. controls” value (S. pneumoniae [3]; S. pneumoniae 6303) was −6.17 log10CFUs. It also gave an Emax (S. pneumoniae [3]; S. pneumoniae 6303, Q6) of 5.83 log10CFU/thigh, an EC50 (S. pneumoniae [3]; S. pneumoniae 6303, Q8) of 9.0 mg/kg and an EC50 (S. pneumoniae [3]; S. pneumoniae 6303, Q12) of 14.5 mg/kg. The Emax (S. pneumoniae [3]; S. pneumoniae 6303, Q12) was 4.95 log10CFU/thigh, the 1 log kill (S. pneumoniae [3]; S. pneumoniae 6303, Q24) was 10.8 mg/Kg and the EC50 (S. pneumoniae [3]; S. pneumoniae 6303, Q24) was 5.7 mg/kg. For the same molecule, the “MIC Range” value (M. genitalium) was “≦0.000032 μg/mL”, the MIC (S. pneumoniae [4]; S. pneumoniae (macrolide susceptible)) was < 0.03 µg/mL and the MIC (S. pneumoniae [4]; S. pneumoniae (mefR), read-out: MIC) was < 0.03 µg/mL. For the same molecule, the “MIC Range” value (M. hominis) was 0.002 to 0.008 µg/mL, the MIC50 (M. hominis; Metamycoplasma hominis, read-out: MIC50) was 0.004 µg/mL (≈ 0.00473 µM) and the MIC90 (M. hominis; Metamycoplasma hominis, read-out: MIC90) was 0.008 µg/mL (≈ 0.00947 µM). For the same molecule, the “Occurrences at MIC (μg/ml) 1” value (M. catarrhalis) was 0, the “Occurrences at MIC (μg/ml) 2” value (M. catarrhalis) was 0 and the “Occurrences at MIC (μg/ml) 4” value (M. catarrhalis) was 0. The “Occurrences at MIC (μg/ml) 8” value (M. catarrhalis) was 0, the “Occurrences at MIC (μg/ml) […]” value (M. catarrhalis) was 0 and the “Occurrences at MIC (μg/ml) ≧16” value (M. catarrhalis) was 0. The MIC50 (M. catarrhalis; Moraxella catarrhalis) was 0.12 µg/mL (≈ 0.142 µM), the MIC90 (M. catarrhalis; Moraxella catarrhalis) was 0.12 µg/mL (≈ 0.142 µM) and the MIC (M. catarrhalis; Moraxella catarrhalis, read-out: Occurrences at MIC (μg/ml) 0.03) was 1 µg/mL (≈ 1.18 µM). It also gave an MIC (M. catarrhalis; Moraxella catarrhalis, read-out: Occurrences at MIC (μg/ml) 0.06) of 5 µg/mL (≈ 5.92 µM), an MIC (M. catarrhalis; Moraxella catarrhalis, read-out: Occurrences at MIC (μg/ml) 0.5) of 1 µg/mL (≈ 1.18 µM) and an MIC (M. catarrhalis; Moraxella catarrhalis, read-out: Occurrences at MIC (μg/ml) ≦0.008) of 1 µg/mL (≈ 1.18 µM). For the same molecule, the “MIC Range” value (U. urealyticum) was 0.004 to 0.063 µg/mL, the MIC50 (U. urealyticum; Ureaplasma urealyticum) was 0.008 µg/mL (≈ 0.00947 µM) and the MIC90 (U. urealyticum; Ureaplasma urealyticum) was 0.031 µg/mL (≈ 0.0367 µM). The MIC (S. pyogenes [5]; S. pyogenes (erythromycin R)) was 1 µg/mL, the MIC (S. pyogenes [5]; S. pyogenes (macrolide susceptible)) was 0.015 µg/mL and the “single step mutation frequency” value (S. pneumoniae [6]; strain 24 Macrolide-R [erm(B)], 2 × MIC) was 1.8 × 10^−7. For the same molecule, the “single step mutation frequency” value (S. pneumoniae [6]; strain 24 Macrolide-R [erm(B)], 4 × MIC) was <5.0 × 10^−9, the “single step mutation frequency” value (S. pneumoniae [6]; strain 24 Macrolide-R [erm(B)], 8 × MIC) was <5.0 × 10^−9 and the “single step mutation frequency” value (S. pneumoniae [6]; strain 1076 Macrolide-R [erm(B)&mef(A)], 2 × MIC) was <2.5 × 10^−8. The “single step mutation frequency” value (S. pneumoniae [6]; strain 1076 Macrolide-R [erm(B)&mef(A)], 4 × MIC) was 7.5 × 10^−9, the “single step mutation frequency” value (S. pneumoniae [6]; strain 1076 Macrolide-R [erm(B)&mef(A)], 8 × MIC) was 2.0 × 10^−9 and the “single step mutation frequency” value (S. pneumoniae [6]; strain 1077 Macrolide-S, 2 × MIC) was <9.1 × 10^−9. The “single step mutation frequency” value (S. pneumoniae [6]; strain 1077 Macrolide-S, 4 × MIC) was <9.1 × 10^−9, the “single step mutation frequency” value (S. pneumoniae [6]; strain 1077 Macrolide-S, 8 × MIC) was <9.1 × 10^−9 and the “single step mutation frequency” value (S. pneumoniae [6]; strain 1635 Macrolide-R [erm(A)], 2 × MIC) was 1.6 × 10^−8. The “single step mutation frequency” value (S. pneumoniae [6]; strain 1635 Macrolide-R [erm(A)], 4 × MIC) was <2.0 × 10^−10, the “single step mutation frequency” value (S. pneumoniae [6]; strain 1635 Macrolide-R [erm(A)], 8 × MIC) was <2.0 × 10^−10 and the “single step mutation frequency” value (S. pneumoniae [6]; strain 2686 Macrolide-R [L4 mutation], 2 × MIC) was <2.5 × 10^−9. The “single step mutation frequency” value (S. pneumoniae [6]; strain 2686 Macrolide-R [L4 mutation], 4 × MIC) was <2.5 × 10^−9, the “single step mutation frequency” value (S. pneumoniae [6]; strain 2686 Macrolide-R [L4 mutation], 8 × MIC) was <2.5 × 10^−9 and the “single step mutation frequency” value (S. pneumoniae [6]; strain 3009 Macrolide-R [23S rRNA mutation], 2 × MIC) was <5.9 × 10^−9. The “single step mutation frequency” value (S. pneumoniae [6]; strain 3009 Macrolide-R [23S rRNA mutation], 4 × MIC) was <5.9 × 10^−9, the “single step mutation frequency” value (S. pneumoniae [6]; strain 3009 Macrolide-R [23S rRNA mutation], 8 × MIC) was <5.9 × 10^−9 and the “single step mutation frequency” value (S. pneumoniae [6]; strain 3665 Macrolide-R [mef(A)], 2 × MIC) was 6.8 × 10^−7. For the same molecule, the “single step mutation frequency” value (S. pneumoniae [6]; strain 3665 Macrolide-R [mef(A)], 4 × MIC) was 1.4 × 10^−7, the “single step mutation frequency” value (S. pneumoniae [6]; strain 3665 Macrolide-R [mef(A)], 8 × MIC) was <4.5 × 10^−10 and the “single step mutation frequency” value (S. pneumoniae [6]; strain 7127 Macrolide-S [S20N in L4, A105V in L22], 2 × MIC) was <2.0 × 10^−10. For the same molecule, the “single step mutation frequency” value (S. pneumoniae [6]; strain 7127 Macrolide-S [S20N in L4, A105V in L22], 4 × MIC) was <2.0 × 10^−10, the “single step mutation frequency” value (S. pneumoniae [6]; strain 7127 Macrolide-S [S20N in L4, A105V in L22], 8 × MIC) was <2.0 × 10^−10 and the MIC50 (N. meningitidis) was ≤ 0.015 µg/mL. The MIC90 (N. meningitidis) was ≤ 0.015 µg/mL and the Cs [7] was 4.56 ×MIC.
